Article PMC11040665, “Aminothiazolone Inhibitors Disrupt the Protein–RNA Interaction of METTL16 and Modulate the m^6A RNA Modification” (JACS Au, 2024)
“Also recorded” adds a separate entry of the source.

Experiments:
[1] = biological target: T1, METTL16 MTD–MAT2A-hp1 RNA interaction (Homo sapiens, UniProt Q86W50); assay: Electrophoretic mobility shift assay (EMSA) with FAM-MAT2A-hp1 RNA; settings: 50 nM METTL16, 5 nM FAM-MAT2A-hp1
T1 sequence (Q86W50 1-291): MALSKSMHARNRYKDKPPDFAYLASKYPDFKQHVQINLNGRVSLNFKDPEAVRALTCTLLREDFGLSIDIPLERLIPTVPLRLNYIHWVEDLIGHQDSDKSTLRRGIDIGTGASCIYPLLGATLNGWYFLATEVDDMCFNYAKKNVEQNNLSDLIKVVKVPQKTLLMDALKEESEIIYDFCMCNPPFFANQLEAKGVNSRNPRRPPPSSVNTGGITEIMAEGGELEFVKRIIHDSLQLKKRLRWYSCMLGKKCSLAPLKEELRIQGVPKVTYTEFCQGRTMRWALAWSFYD
Experimental: METTL16 MTD protein (1–291) was incubated with the indicated compound or DMSO in a buffer containing 20 mM HEPES, pH 7.5, 50 mM NaCl, 0.05% v/v Tween 20, and 0.05 mg/mL BGG at room temperature for 30 min; subsequently, FAM-MAT2A-hp1 RNA probe was added and incubated at room temperature for 10 min, the final of protein and RNA are 50 and 5 nM respectively, and 1% DMSO was used as the control. […] The gel was detected and imaged by Chemi Doc MP (Bio-Rad).

[2] = biological target: T2, METTL16–MAT2A-hp1 mRNA interaction (METTL16 MTD 1–291, FAM-labeled MAT2A-hp1 RNA) (Homo sapiens, UniProt Q86W50); assay: Fluorescence polarization (FP) assay, disruption of METTL16 binding to FAM-MAT2A-hp1 RNA
T2 sequence (Q86W50 1-291): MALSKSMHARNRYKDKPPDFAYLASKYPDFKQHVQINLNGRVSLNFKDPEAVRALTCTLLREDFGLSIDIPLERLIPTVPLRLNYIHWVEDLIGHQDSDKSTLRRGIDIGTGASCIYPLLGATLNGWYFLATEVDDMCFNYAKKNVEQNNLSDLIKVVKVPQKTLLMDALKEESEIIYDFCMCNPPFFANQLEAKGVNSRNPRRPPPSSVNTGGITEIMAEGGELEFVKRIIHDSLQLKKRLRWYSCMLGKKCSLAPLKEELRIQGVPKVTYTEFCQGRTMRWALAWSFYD
Experimental: The binding of METTL16 to the FAM-labeled RNA probe formed a complex that led to a higher FP signal in comparison to that of the unbound RNA probe (Figure 2A). […] The Z-factor of 0.91 indicated the suitability of the assay condition (Figure S2D). […] In both FP assay and EMSA, a final concentration of 50 nM METTL16 and 5 nM FAM-MAT2A-hp was used. The METTL16 MTD (amino acids 1–291) was used in this study unless specifically indicated otherwise.
The FP assay was performed using 384-well black plates (Corning #4514) in a total reaction volume of 20 μL, with the final concentration of protein and RNA being 50 and 5 nM respectively. Compounds were diluted in FP buffer and incubated with protein for 30 min at room temperature, then FAM-MAT2A-hp1 RNA probe was added and the fluorescence polarization was measured using a TECAN Spark plate reader, under the excitation wavelength of 485 nm and the emission wavelength of 535 nm with bandwidth of 20 nm. 1% DMSO was used as the control. The inhibition was calculated with the equation: inhibition = 100%(Control – X)/(Control – Blank); Control: DMSO with protein and FAM-RNA; Blank: DMSO with FAM-RNA; X: compound with protein and FAM-RNA. The IC50 value was further determined using GraphPad Prism 9. […] The polarization was measured under an excitation wavelength of 630 nm and an emission wavelength of 680 nm with a bandwidth of 20 nm.

MDA-MB-231 cells [3] = assay: Colony formation assay; format: cell-based, human; settings: 7 days, three tested concentrations
Experimental: MDA-MB-231 cells were collected and seeded with the density of 1000 cells per well into 24-well plates; after being cultured overnight, the medium was exchanged and treated with indicated compounds or DMSO (0.5%) as the control. The medium change and treatment were performed every 3 days. After 7 days, the cell culture medium was discarded, and cells were washed with PBS and fixed with 4% paraformaldehyde solution at room temperature for 15 min; the paraformaldehyde solution was removed, and cells were washed with PBS again to remove the paraformaldehyde. Then cells were stained with 0.1% (w/v) crystal violet. After staining for 15 min, the cells were washed with H2O to remove the extra dye and then photographed.

[4] = biological target: T3, METTL16 MTD–U6 snRNA Δ interaction (Homo sapiens, UniProt Q86W50); assay: FP assay with Cy5-labeled U6 snRNA Δ; format: binding
T3 construct: METTL16 MTD (1–291) was subcloned to pOPINB plasmid; His tag followed by HRV 3C cleavage site (N, cleaved yes); made in house; host or cells: E. coli Rosetta (DE3)
T3 sequence (Q86W50 1-291): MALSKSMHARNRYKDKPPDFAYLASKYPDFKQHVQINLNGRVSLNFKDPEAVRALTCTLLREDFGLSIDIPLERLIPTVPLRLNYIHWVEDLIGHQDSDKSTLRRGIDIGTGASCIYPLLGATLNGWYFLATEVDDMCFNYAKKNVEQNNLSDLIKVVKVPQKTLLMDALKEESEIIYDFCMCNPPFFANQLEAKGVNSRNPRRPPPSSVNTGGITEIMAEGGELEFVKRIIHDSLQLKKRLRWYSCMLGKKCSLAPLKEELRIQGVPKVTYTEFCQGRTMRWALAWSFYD

[5] = biological target: T4, METTL16 MTD–GGACU-containing RNA interaction (Homo sapiens, UniProt Q86W50); assay: EMSA with GGACU-containing RNA; settings: 5 nM RNA, 600 nM METTL16 MTD
T4 sequence (Q86W50 1-291): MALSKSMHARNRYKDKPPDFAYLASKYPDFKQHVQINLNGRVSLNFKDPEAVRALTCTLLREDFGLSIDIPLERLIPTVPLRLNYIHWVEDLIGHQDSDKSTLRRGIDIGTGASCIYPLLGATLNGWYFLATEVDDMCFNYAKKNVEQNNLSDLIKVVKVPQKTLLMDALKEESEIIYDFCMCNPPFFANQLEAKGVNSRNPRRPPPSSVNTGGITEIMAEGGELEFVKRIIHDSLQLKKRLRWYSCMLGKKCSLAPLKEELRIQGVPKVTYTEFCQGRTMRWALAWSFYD
Experimental: METTL16 MTD protein (1–291) was incubated with the indicated compound or DMSO in a buffer containing 20 mM HEPES, pH 7.5, 50 mM NaCl, 0.05% v/v Tween 20, and 0.05 mg/mL BGG at room temperature for 30 min; subsequently, FAM-MAT2A-hp1 RNA probe was added and incubated at room temperature for 10 min, the final of protein and RNA are 50 and 5 nM respectively, and 1% DMSO was used as the control. […] The gel was detected and imaged by Chemi Doc MP (Bio-Rad). […] EMSA for testing compounds with GGAUC-motif containing RNA and METTL16 MTD interaction was performed using the method described above, expecting that the final of METTL16 MTD protein and FAM-labeled-GGACU RNA are 600 nM and 5 nM respectively. EMSA for RNA binding: indicated concentrations of fluorophore-labeled RNA were incubated with indicated concentrations of protein in EMSA buffer for 15 min at room temperature, then loaded to native PAGE gels and imaged with the method described above.

MDA-MB-231 cells [6] = assay: Cell viability, MDA-MB-231; format: cell-based, human
[7] = biological target: T5, methyltransferase activity of METTL16 MTD toward MAT2A-hp1 (Homo sapiens, UniProt Q86W50); assay: In vitro methylation assay (MTase Glo); format: biochemical; settings: RNA substrate MAT2A-hp1
T5 construct: METTL16 MTD (1–291) was subcloned to pOPINB plasmid; His tag followed by HRV 3C cleavage site (N, cleaved yes); made in house; host or cells: E. coli Rosetta (DE3)
T5 sequence (Q86W50 1-291): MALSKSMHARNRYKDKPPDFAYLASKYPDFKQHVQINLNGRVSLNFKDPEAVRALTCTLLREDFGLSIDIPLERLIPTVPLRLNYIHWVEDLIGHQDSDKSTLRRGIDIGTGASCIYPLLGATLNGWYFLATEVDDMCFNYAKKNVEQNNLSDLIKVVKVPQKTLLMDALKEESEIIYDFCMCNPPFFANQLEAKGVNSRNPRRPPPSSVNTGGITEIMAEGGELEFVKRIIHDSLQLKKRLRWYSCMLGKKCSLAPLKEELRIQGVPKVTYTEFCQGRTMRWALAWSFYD
Experimental: Next, we evaluated the inhibition of the METTL16 methylation using the MTase Glo assay kit (Promega) measuring the methyltransferase activity based on the formation of the methylation product S-adenosyl homocysteine, which was converted to ADP by the MTase-Glo reagent to trigger a subsequent luciferase reaction (Figure 5E).
The methyltransferase activity of METTL16 MTD was measured using an MTase Glo kit (Promega V7601) following the manufacturer’s instructions. The reaction was carried out in white 384-well plates (Corning #3824), with a total methyltransferase reaction volume of 8 μL, and the final concentrations of METTL16 MTD, MAT2A-hp1, and SAM were 1, 1, and 10 μM, respectively, and 1% of DMSO was used as a control. […] To use SAM at a different final concentration, the concentration of SAM was adjusted accordingly in a 2× substrate solution.

[8] = biological target: T6, METTL16 MTD (methyltransferase domain) (Homo sapiens, UniProt Q86W50 1-291); assay: competition FP; vs FAM-MAT2A-hp1; more potent than GGACU-RNA and pre-miR-17-hp bp; 20 mM HEPES pH 7.5, 50 mM NaCl, 0.05% Tween 20, 0.05 mg/mL BGG, room temperature; EMSA 6.6% native PAGE 0.5x TBE at 4 C; settings: protein: recombinant, tags: N-terminal His tag removed by HRV 3C (His-tagged form also purified)
T6 sequence: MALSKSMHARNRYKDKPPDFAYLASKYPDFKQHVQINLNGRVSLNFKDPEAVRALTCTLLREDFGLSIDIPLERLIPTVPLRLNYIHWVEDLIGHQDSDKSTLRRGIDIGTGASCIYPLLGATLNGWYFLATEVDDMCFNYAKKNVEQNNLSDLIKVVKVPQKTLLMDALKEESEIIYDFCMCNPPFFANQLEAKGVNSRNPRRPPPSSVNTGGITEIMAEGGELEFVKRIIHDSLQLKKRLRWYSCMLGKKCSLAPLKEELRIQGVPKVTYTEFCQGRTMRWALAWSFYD

[9] = biological target: T6, METTL16 MTD (methyltransferase domain); assay: competition FP; vs FAM-MAT2A-hp1; 20 mM HEPES pH 7.5, 50 mM NaCl, 0.05% Tween 20, 0.05 mg/mL BGG, room temperature; EMSA 6.6% native PAGE 0.5x TBE at 4 C; settings: protein: recombinant; tags: N-terminal His tag removed by HRV 3C (His-tagged form also purified)

For `COc1ccc(S(=O)(=O)NC2=NC(=O)C(=C3C(=O)Nc4ccc(Cl)cc43)S2)cc1` [Compound 1], the “disruption of METTL16–MAT2A-hp1 RNA binding in EMSA, in words” value [1] was “dose-dependent inhibition” and the IC50 [2] was 16.3 µM.

`O=C1N=C(NS(=O)(=O)c2ccc(C(=O)O)cc2)SC1=C1C(=O)Nc2ccc(Cl)cc21` [Compound 27] was tested, and the “inhibition on colony formation, in words” value (MDA-MB-231 cells [3]) was “mild inhibitory activity against colony formation”, the IC50 [4] was 6.6 µM and the IC50 [2] was 2.7 µM. For the same molecule, the “inhibition of METTL16–GGACU RNA binding in EMSA, in words” value [5] was “dose-dependently inhibited”, the “effect on cell viability, in words” value (MDA-MB-231 cells [6]) was “mild antiviability effect” and the “inhibition of the methyltransferase activity of METTL16 MTD, in words” value [7] was “dose-dependently inhibited; also recorded: potent inhibitory activity”.

GUGCAGGUAGUGAUAUGUGCAUCUACUGCAC (structured_RNA) [pre-miR-17-hp]: binds ([8]; hairpin with two bulges).

GGGUUGACUGUUGAAUCUCAUGGCAACCC (structured_RNA) [pre-miR-21-hp]: binds ([8]; hairpin).

UUCUUCUGUGGACUGUG (ssRNA) [GGACU-RNA (unlabeled)] showed an IC50 [9] of 0.814 µM.
